# Measurements from ChEMBL document CHEMBL5154903 (J Med Chem, 2022).
# Active and inactive are the calls of the source. The rule behind the calls is not given here.
# Legend:
# [1] = test system: HepG2; experiment: Inhibition of lipid metabolism in human HepG2 cells assessed as increase in p-ACC/ACC ratio at 10 uM incubated for 24 hrs by Western blot analysis; type: functional, cell-based
# [2] = target: T1, Thyroid hormone receptor beta (Homo sapiens, UniProt P10828); experiment: Agonist activity at human TR beta LBD (202 to 461 residues) expressed in Escherichia coli BL21 (DE3) cells assessed as induction of N-terminal biotinylated coactivator SRC2-3 peptide recruitment by alphascreen assay
# T1 sequence (P10828 whole entry): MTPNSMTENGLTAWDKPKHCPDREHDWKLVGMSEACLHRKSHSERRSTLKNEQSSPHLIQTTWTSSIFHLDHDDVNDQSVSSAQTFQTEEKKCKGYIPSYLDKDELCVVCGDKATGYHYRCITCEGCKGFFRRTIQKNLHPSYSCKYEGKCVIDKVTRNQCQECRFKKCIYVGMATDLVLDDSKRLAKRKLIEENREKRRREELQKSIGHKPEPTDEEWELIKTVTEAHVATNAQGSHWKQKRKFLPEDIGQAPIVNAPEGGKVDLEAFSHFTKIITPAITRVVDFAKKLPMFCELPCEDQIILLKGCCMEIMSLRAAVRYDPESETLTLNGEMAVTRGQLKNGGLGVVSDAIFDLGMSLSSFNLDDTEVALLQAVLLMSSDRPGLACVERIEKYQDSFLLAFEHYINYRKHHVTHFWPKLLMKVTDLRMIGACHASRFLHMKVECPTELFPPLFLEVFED
# [3] = target: Egl nine homolog 1 (Homo sapiens, UniProt Q9GZT9); experiment: Binding affinity to PHD2 (unknown origin) assessed as change in melting temperature at 10 uM in presence of ZnSO4 by thermal shift assay
# Sequence of Egl nine homolog 1 (Q9GZT9 2-426 limits assumed): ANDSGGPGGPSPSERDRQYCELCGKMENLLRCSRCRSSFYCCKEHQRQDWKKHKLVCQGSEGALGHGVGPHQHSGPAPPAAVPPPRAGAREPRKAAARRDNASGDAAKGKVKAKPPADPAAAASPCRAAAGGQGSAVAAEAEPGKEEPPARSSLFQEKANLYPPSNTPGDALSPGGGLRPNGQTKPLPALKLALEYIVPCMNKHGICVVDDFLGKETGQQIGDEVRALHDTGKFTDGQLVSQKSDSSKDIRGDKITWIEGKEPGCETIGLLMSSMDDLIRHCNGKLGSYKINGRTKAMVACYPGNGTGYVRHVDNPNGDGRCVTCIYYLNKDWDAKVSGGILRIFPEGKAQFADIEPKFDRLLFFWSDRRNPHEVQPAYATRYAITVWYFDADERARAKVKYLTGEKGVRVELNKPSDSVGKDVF
# [4] = Agonist activity at human TRbeta H435 mutant expressed in Escherichia coli BL21 (DE3) cells by alphascreen assay
# [5] = test system: HepG2; experiment: Inhibition of lipid metabolism in human HepG2 assessed as reduction in intracellular total cholesterol level at 1 to 10 uM incubated for 24 hrs; type: functional, cell-based; details: dose 1-10 µM
# [6] = test system: Hepatocyte; experiment: Inhibition of lipid metabolism in mouse primary hepatocytes assessed as reduction in intracellular total cholesterol level at 10 uM incubated for 24 hrs; type: functional, cell-based
# [7] = test system: Hepatocyte; experiment: Inhibition of lipid metabolism in mouse primary hepatocytes assessed as reduction in intracellular tryglyceride level at 10 uM incubated for 24 hrs; type: functional, cell-based
# [8] = test system: HepG2; experiment: Inhibition of lipid metabolism in human HepG2 cells assessed as reduction in total lipid accumulation at 10 uM incubated for 24 hrs by oil red O staining based inverted microscopic analysis; type: functional, cell-based
# [9] = test system: HepG2; experiment: Induction of mitochondrial basal respiration in human HepG2 cells assessed as increase in oxygen consumption rate at 10 uM measured after 24 hrs by Seahorse XFe96 flux analyzer; type: functional, cell-based
# [10] = test system: HepG2; experiment: Inhibition of lipid metabolism in human HepG2 cells assessed as increase in p-AMPK/AMPK ratio at 10 uM incubated for 24 hrs by Western blot analysis; type: functional, cell-based
# [11] = test system: CWR22R; experiment: Cytotoxicity against human 22Rv1 cells assessed as reduction in cell viability at 10 uM incubated for 72 to 96 hrs by Celltiter-Glo assay; type: toxicity, cell-based; details: time 72-96 hrs
# [12] = test system: A549; experiment: Cytotoxicity against human A549 cells assessed as reduction in cell viability at 10 uM incubated for 72 to 96 hrs by Celltiter-Glo assay; type: toxicity, cell-based; details: a549, 10 µM, time 72-96 hrs
# [13] = test system: MDA-MB-231; experiment: Cytotoxicity against human MDA-MB-231 cells assessed as reduction in cell viability at 10 uM incubated for 72 to 96 hrs by Celltiter-Glo assay; type: toxicity, cell-based; details: mda-mb-231, 10 µM, time 72-96 hrs
# [14] = test system: BXPC-3; experiment: Cytotoxicity against human BXPC-3 cells assessed as reduction in cell viability at 10 uM incubated for 72 to 96 hrs by Celltiter-Glo assay; type: toxicity, cell-based; details: bxpc-3, 10 µM, time 72-96 hrs
# [15] = Microsomal stability in human liver microsomes assessed as intrinsic clearance at 1 uM incubated for 60 mins by HPLC-MS/MS analysis; type: ADME, Microsome; details: read-out: CLH
# [16] = Microsomal stability in human liver microsomes assessed as half life at 1 uM incubated for 60 mins by HPLC-MS/MS analysis; type: ADME, Microsome
# [17] = Microsomal stability in rat liver microsomes assessed as intrinsic clearance at 1 uM incubated for 60 mins by HPLC-MS/MS analysis; type: ADME, Microsome; details: read-out: CLH
# [18] = Microsomal stability in rat liver microsomes assessed as half life at 1 uM incubated for 60 mins by HPLC-MS/MS analysis; type: ADME, Microsome
# [19] = target: T2, hERG (Homo sapiens, UniProt Q12809); experiment: Inhibition of hERG expressed in HEK293 cells at 1 uM by patch-clamp assay relative to control; type: toxicity, cell-based; details: HEK293 cells expressing hERG
# T2 sequence (Q12809 whole entry): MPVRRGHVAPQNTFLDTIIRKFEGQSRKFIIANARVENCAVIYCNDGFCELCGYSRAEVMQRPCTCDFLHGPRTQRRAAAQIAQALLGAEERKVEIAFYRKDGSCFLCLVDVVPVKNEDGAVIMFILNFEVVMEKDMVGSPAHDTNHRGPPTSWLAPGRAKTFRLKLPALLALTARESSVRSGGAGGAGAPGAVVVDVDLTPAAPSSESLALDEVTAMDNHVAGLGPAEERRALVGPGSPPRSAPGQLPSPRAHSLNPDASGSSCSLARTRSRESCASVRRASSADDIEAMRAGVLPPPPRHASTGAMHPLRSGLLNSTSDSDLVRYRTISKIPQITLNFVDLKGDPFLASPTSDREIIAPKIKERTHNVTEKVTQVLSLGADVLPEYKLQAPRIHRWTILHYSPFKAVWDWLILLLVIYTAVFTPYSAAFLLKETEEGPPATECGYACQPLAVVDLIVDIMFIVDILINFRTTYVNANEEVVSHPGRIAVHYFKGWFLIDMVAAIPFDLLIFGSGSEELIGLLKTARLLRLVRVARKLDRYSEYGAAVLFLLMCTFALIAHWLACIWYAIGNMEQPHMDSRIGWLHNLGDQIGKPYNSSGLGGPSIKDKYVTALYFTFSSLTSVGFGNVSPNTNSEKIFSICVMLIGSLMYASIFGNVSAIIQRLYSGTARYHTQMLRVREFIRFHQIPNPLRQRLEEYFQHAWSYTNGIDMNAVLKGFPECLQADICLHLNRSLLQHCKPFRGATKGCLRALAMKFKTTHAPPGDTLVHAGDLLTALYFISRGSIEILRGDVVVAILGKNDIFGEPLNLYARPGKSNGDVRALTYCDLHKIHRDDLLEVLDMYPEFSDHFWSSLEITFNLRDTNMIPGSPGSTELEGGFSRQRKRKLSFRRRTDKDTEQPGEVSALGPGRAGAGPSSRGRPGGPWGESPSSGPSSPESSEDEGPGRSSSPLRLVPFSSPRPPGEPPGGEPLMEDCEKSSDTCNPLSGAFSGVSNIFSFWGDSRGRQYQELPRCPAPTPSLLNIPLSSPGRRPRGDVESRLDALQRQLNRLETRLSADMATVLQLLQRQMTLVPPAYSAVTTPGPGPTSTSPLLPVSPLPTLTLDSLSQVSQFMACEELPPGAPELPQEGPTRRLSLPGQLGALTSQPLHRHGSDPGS
# [20] = target: T2, hERG; experiment: Inhibition of hERG expressed in HEK293 cells at 10 uM by patch-clamp assay relative to control; type: toxicity, cell-based; details: HEK293 cells expressing hERG
# [21] = target: CYP2D6 (Homo sapiens, UniProt P10635); experiment: Inhibition of CYP2D6 in human liver microsomes at 10 uM incubated for 45 mins by LC-MS/MS analysis relative to control; type: ADME, Microsome
# Sequence of CYP2D6 (P10635 whole entry): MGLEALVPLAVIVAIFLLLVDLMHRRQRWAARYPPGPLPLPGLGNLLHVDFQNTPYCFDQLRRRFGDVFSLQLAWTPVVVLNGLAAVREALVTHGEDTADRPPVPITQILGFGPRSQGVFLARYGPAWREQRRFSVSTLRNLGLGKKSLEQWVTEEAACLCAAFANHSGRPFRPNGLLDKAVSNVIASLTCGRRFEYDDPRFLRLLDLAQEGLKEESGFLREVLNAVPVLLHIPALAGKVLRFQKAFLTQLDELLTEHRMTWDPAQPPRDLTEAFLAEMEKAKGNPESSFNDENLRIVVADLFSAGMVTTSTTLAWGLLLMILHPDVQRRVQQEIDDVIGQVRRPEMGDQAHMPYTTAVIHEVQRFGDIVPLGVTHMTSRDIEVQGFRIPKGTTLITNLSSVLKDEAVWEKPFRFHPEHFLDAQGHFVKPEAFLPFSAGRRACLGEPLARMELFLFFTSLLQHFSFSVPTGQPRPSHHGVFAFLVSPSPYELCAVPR
# [22] = AUC (0 to infinity) in overnight fasted Sprague-Dawley rat at 5 mg/kg, po measured upto 24 hrs; type: ADME, organism-based; parameters: dose 5 mg/kg, time < 24 hrs, route po; details: in vivo
# [23] = Tmax in overnight fasted Sprague-Dawley rat at 5 mg/kg, po measured upto 24 hrs; type: ADME, organism-based; details: in vivo
# [24] = Tmax in overnight fasted Sprague-Dawley rat at 5 mg/kg, iv measured upto 24 hrs; type: ADME, organism-based; details: in vivo
# [25] = Cmax in overnight fasted Sprague-Dawley rat at 5 mg/kg, po measured upto 24 hrs; type: ADME, organism-based; parameters: time < 24 hrs, dose 5 mg/kg, route po; details: in vivo
# [26] = Cmax in overnight fasted Sprague-Dawley rat at 5 mg/kg, iv measured upto 24 hrs; type: ADME, organism-based; parameters: time < 24 hrs, dose 5 mg/kg, route iv; details: in vivo
# [27] = Volume of distribution at steady state in overnight fasted Sprague-Dawley rat at 5 mg/kg, iv measured upto 24 hrs; type: ADME, organism-based; details: in vivo, read-out: Vdss
# [28] = Half life in overnight fasted Sprague-Dawley rat at 5 mg/kg, iv measured upto 24 hrs; type: ADME, organism-based; details: in vivo
# [29] = target: T3, Thyroid hormone receptor alpha (Homo sapiens) (UniProt P10827); details: filed as agonist, dose 10.0 µM
# T3 sequence (whole entry): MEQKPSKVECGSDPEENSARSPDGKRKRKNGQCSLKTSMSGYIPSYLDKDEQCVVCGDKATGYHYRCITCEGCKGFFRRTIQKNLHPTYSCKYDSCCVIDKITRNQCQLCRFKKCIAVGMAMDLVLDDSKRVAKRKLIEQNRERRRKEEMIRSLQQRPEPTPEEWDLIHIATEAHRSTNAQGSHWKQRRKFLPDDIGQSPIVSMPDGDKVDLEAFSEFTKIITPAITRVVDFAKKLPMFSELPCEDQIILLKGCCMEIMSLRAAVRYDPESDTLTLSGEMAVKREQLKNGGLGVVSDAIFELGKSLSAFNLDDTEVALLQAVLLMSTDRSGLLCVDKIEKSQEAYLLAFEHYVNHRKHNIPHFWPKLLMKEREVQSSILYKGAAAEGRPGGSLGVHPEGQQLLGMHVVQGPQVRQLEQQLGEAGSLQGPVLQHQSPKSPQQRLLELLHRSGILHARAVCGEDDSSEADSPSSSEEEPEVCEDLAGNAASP
structure (smiles),measurement,setting,value
COc1cc(F)cc(C(=O)c2cc(C)c(Oc3ccc4c(O)c(C(=O)NCC(=O)O)nc(OC)c4c3)c(C)c2)c1,inhibition,[1],Active
same,EC50,[2],21 nM
same,ΔTm,[3],1.5 °C
same,EC50,[4],1340 nM
same,inhibition,[5],Active
same,inhibition,[6],Active
same,inhibition,[7],Active
same,inhibition,[8],Active
same,Activity,[9],Active
same,inhibition,[10],Active
same,Activity,[11],Non-Toxic
same,Activity,[12],Non-Toxic
same,Activity,[13],Non-Toxic
same,Activity,[14],Non-Toxic
same,CLint scaled at 1 µM,[15],< 14.5 mL/min/kg
same,half-life at 1 µM,[16],> 2 h
same,CLint scaled at 1 µM,[17],< 45.5 mL/min/kg
same,half-life at 1 µM,[18],> 2 h
same,inhibition at 1 µM,[19],4.19%
same,inhibition at 10 µM,[20],9.13%
same,"inhibition at 0.75 h, 10 µM",[21],-11.3%
same,AUC(0-inf),[22],6830 ng·h/mL
same,Tmax,[23],1.33 h
same,Tmax,[24],4.8 min
same,Cmax,[25],1450 ng/mL
same,Cmax,[26],8450 ng/mL
same,Vd,[27],0.72 L/kg
same,half-life,[28],1.8 h
same,ΔTm,[29],0.1 °C
